Assay results published in patent publication US8519184B2, “Synthesis of rare earth metal extractant” (Shin-Etsu Chemical Co., Ltd., priority 2010, dated 2013).
In brackets after ≈: the same amount, converted by molar mass.

Legend:
[1] = Extractant state of reaction product; assay type: physicochemical; conditions: Table 2; reaction product at varied B/A (dioctylamine/diglycolic anhydride)
Description: An amount (designated A in Table 2) of diglycolic anhydride was suspended in 40 mL of hexane. Separately, an amount (designated B in Table 2) of dioctylamine was dissolved in 10 mL of hexane. With stirring, the dioctylamine solution was added dropwise to the diglycolic anhydride suspension. Stirring was continued at room temperature until it was confirmed that the solution became clear as a result of reaction of diglycolic anhydride. The reaction product was obtained in hexane solution. Table 2 also reports a ratio B/A that is a ratio of the amount (B mmol) of dioctylamine to the amount (A mmol) of diglycolic anhydride.
An aqueous solution containing mixed rare earth metals was prepared by dissolving praseodymium chloride and neodymium chloride in water in a molar ratio Pr:Nd of 1:1 and a concentration of 0.1 mol/L of Pr+Nd to form an aqueous solution, which might become an aqueous phase. A separatory funnel was charged with 100 mL of the organic solution and 100 mL of the aqueous solution and shaken at 20° C. for about 20 minutes to effect extraction. After equilibrium was reached, the liquid was allowed to separate into organic and aqueous phases. A separatory funnel was charged with 100 mL of the thus separated organic phase and 100 mL of 5N hydrochloric acid and shaken at 20° C. for about 20 minutes whereby the rare earth element once extracted into the organic phase was back-extracted into the aqueous hydrochloric acid solution. The concentrations of praseodymium and neodymium in the aqueous phase and the back-extracted aqueous hydrochloric acid solution were measured by an ICP atomic emission spectrometer ICP-7500 (Shimadzu Corp.).

[2] = cited from earlier work
[3] = Extraction/separation test (solvent extraction, Nd/Pr); conditions: 20° C.
Description: An extraction/separation test was performed. […] The reaction product solution was diluted with hexane to form an organic solution having a DODGAA concentration of 0.3 mol/L, which might become an organic phase.
An extraction/separation test was performed. The concentration of DODGAA in the reaction product solution was computed from the amounts of reactants and synthesis medium. The reaction product solution was diluted with hexane to form an organic solution having a DODGAA concentration of 0.3 mol/L, which might become an organic phase. […]
An aqueous solution containing mixed rare earth metals was prepared by dissolving praseodymium chloride and neodymium chloride in water in a molar ratio Pr:Nd of 1:1 and a concentration (mol/L) of Pr+Nd as shown in Table 4 to form an aqueous solution which might become an aqueous phase. […] The concentrations of praseodymium and neodymium in the aqueous phase and the back-extracted aqueous hydrochloric acid solution were measured by an ICP atomic emission spectrometer ICP-7500 (Shimadzu Corp.).

[4] = Table 1, DODGAA 0.3 mol/L in hexane organic phase, Pr+Nd 0.1 mol/L aqueous, about 20 minutes

Row | Structure (SMILES) | Extractant state [1] | further results
1 | CCCCCCCCN(CCCCCCCC)C(=O)COCC(=O)O [Example 5, N,N-dioctyl-3-oxapentane-1,5-amic acid] | solid | –
2 | CCCCCCCCN(CCCCCCCC)C(=O)COCC(=O)O [Example 2, N,N-dioctyl-3-oxapentane-1,5-amic acid] | liquid | –
3 | CCCCCCCCN(CCCCCCCC)C(=O)COCC(=O)O [Comparative Example 2, N,N-dioctyl-3-oxapentane-1,5-amic acid] | liquid | –
4 | CCCCCCCCN(CCCCCCCC)C(=O)COCC(=O)O [DODGAA, N,N-dioctyl-3-oxapentane-1,5-amic acid] | – | solubility in water [2]: 6.2 µM (≈ 2.22 µg/mL)
5 | CCCCCCCCN(CCCCCCCC)C(=O)COCC(=O)O [Example 3, N,N-dioctyl-3-oxapentane-1,5-amic acid] | liquid | Nd/Pr separation factor ([3]; Table 2, varied B/A, DODGAA 0.3 mol/L in hexane, Pr+Nd 0.1 mol/L): satisfactory
6 | CCCCCCCCN(CCCCCCCC)C(=O)COCC(=O)O [Comparative Example 1, N,N-dioctyl-3-oxapentane-1,5-amic acid] | – | Nd/Pr separation factor [3, 4]: satisfactory
7 | CCCCCCCCN(CCCCCCCC)C(=O)COCC(=O)O [Example 1, N,N-dioctyl-3-oxapentane-1,5-amic acid] | – | Nd/Pr separation factor [3, 4]: satisfactory
8 | CCCCCCCCN(CCCCCCCC)C(=O)COCC(=O)O [Example 4, N,N-dioctyl-3-oxapentane-1,5-amic acid] | liquid | –
